Numbering of substitutions follows the chain as printed.
Assays:
Assay type in all cases: biochemical
HIV-2 N1 IN = target: T1, HIV-2 N1 IN (Human immunodeficiency virus type 2 subtype B, UniProt Q89928, I1218V/I1301V/I1372V/M1455R/N1185G/N1438H/R1202K/R1392Q/T1348V/T1383A/V1460M); assay: strand transfer inhibition, IN from clinical isolate N1 (wild-type reference); settings: IN from RAL-naive patient N1; 200 nM IN; 37°C; Mg2+
T1 construct: His-tag (pET-15b) (N); made in house; host or cells: Escherichia coli BL21-CodonPlus (DE3)-RIPL
T1 sequence (Q89928 1169-1464 N1185G/R1202K/I1218V/I1301V/T1348V/I1372V/T1383A/R1392Q/N1438H/M1455R/V1460M limits assumed): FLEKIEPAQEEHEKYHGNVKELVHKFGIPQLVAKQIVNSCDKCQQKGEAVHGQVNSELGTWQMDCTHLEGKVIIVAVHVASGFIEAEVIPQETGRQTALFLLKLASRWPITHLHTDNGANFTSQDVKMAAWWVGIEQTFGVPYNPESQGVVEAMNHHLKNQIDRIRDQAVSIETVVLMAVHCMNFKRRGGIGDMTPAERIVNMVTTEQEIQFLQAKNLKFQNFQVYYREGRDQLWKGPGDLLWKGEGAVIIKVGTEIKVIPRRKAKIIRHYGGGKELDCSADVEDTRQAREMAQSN
Experimental: The ST reaction was performed using a ^32P-labeled oligonucleotide mimicking the preprocessed substrate. Drug concentrations are indicated above each lane. […] Activity is expressed as a % of control without drug. Experiments were repeated two times.
(§1) The HIV-2 ODN substrate sequences were: UA: 5'-[…]-3'; U5B: 5'-[…]-3'; U5B-2: 5'-[…] […]-3'.

HIV-2 IN Q148R = target: T2, HIV-2 IN Q148R (Human immunodeficiency virus type 2 subtype B, UniProt Q89928, I1218V/I1301V/I1372V/M1455R/N1185G/N1438H/Q1316R/R1202K/R1392Q/T1348V/T1383A/V1460M); assay: susceptibility to RAL, site-directed mutant in N1 background; settings: preliminary studies with high protein concentrations
T2 construct: His-tag (pET-15b) (N); made in house; host or cells: Escherichia coli BL21-CodonPlus (DE3)-RIPL
T2 sequence (Q89928 with tags, fused parts or gaps N1185G/R1202K/I1218V/I1301V/Q1316R/T1348V/I1372V/T1383A/R1392Q/N1438H/M1455R/V1460M): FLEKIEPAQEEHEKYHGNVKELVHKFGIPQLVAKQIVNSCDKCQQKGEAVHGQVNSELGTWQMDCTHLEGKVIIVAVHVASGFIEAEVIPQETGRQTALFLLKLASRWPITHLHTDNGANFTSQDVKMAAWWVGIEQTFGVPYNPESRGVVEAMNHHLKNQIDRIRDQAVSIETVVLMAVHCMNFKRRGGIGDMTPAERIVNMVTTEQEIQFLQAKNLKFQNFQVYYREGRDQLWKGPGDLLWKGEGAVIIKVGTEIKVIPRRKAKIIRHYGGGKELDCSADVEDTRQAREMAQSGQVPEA
Excerpt: (§2) Primer 1: N1, N2, T1, T2, 5'-[…]-3'; N3, 5'-[…] […]-3'; T3-T7, 5'-[…]-3'. Primers 2: N1, 5'-[…]-3'; N2, 5'-[…] […]-3'; N3, 5'-[…] C-3'; T1, T2, 5'-[…]-3'; T3-T7, 5'-GGATC […] -3'.
as §1

HIV-2 IN G140S = target: T3, HIV-2 IN G140S (Human immunodeficiency virus type 2 subtype B, UniProt Q89928, G1308S/I1218V/I1301V/I1372V/M1455R/N1185G/N1438H/R1202K/R1392Q/T1348V/T1383A/V1460M); assay: strand transfer inhibition, site-directed mutant in N1 background; settings: 200 nM IN
T3 construct: His-tag (pET-15b) (N); made in house; host or cells: Escherichia coli BL21-CodonPlus (DE3)-RIPL
T3 sequence (Q89928 with tags, fused parts or gaps N1185G/R1202K/I1218V/I1301V/G1308S/T1348V/I1372V/T1383A/R1392Q/N1438H/M1455R/V1460M): T2 sequence (Q89928 with tags, fused parts or gaps N1185G/R1202K/I1218V/I1301V/Q1316R/T1348V/I1372V/T1383A/R1392Q/N1438H/M1455R/V1460M) with G140S, R148Q
Experimental: (§3) Activity is expressed as a % of control without drug. Experiments were performed two times.
as §2, §1

HIV-2 IN Y143C/N155H = target: T4, HIV-2 IN Y143C/N155H (Human immunodeficiency virus type 2 subtype B, UniProt Q89928, I1218V/I1301V/I1372V/M1455R/N1185G/N1323H/N1438H/R1202K/R1392Q/T1348V/T1383A/V1460M/Y1311C); assay: as above; settings: Y143C/N155H double mutant in N1 background; 200 nM IN
T4 construct: His-tag (pET-15b) (N); made in house; host or cells: Escherichia coli BL21-CodonPlus (DE3)-RIPL
T4 sequence (Q89928 with tags, fused parts or gaps N1185G/R1202K/I1218V/I1301V/Y1311C/N1323H/T1348V/I1372V/T1383A/R1392Q/N1438H/M1455R/V1460M): T2 sequence (Q89928 with tags, fused parts or gaps N1185G/R1202K/I1218V/I1301V/Q1316R/T1348V/I1372V/T1383A/R1392Q/N1438H/M1455R/V1460M) with Y143C, R148Q, N155H
Experimental: as §3, §2, §1

HIV-2 IN (N1 to N3) = target: T5, HIV-2 IN (N1 to N3) (Human immunodeficiency virus type 2 subtype B, UniProt Q89928, I1218V/I1301V/I1372V/M1455R/N1185G/N1438H/R1202K/R1392Q/T1348V/T1383A/V1460M); assay: 3'-processing inhibition, INs from clinical isolates N1 to N3; settings: at concentrations up to 1 μM; data not shown
T5 construct: His-tag (pET-15b) (N); made in house; host or cells: Escherichia coli BL21-CodonPlus (DE3)-RIPL
T5 sequence (Q89928 1169-1464 N1185G/R1202K/I1218V/I1301V/T1348V/I1372V/T1383A/R1392Q/N1438H/M1455R/V1460M limits assumed): T1 sequence (Q89928 1169-1464 N1185G/R1202K/I1218V/I1301V/T1348V/I1372V/T1383A/R1392Q/N1438H/M1455R/V1460M limits assumed)
Experimental: The activity of wild-type and mutated INs was determined in vitro, as previously described. Briefly, oligonucleotides (ODN) mimicking the end of the U5 long terminal repeat of the viral genome were radiolabeled with T4 polynucleotide kinase (Biolabs, Ipswich, USA) and [γ-^32P] ATP (3,000 Ci/mmol) (Amersham, GE Healthcare, USA), then purified on a Sephadex G-10 column (GE Healthcare, USA). Double-stranded ODNs were obtained by mixing equimolar amounts of complementary strands in the presence of 100 mM NaCl.

Cc1nnc(C(=O)NC(C)(C)c2nc(C(=O)NCc3ccc(F)cc3)c(O)c(=O)n2C)o1 [RAL, raltegravir]
IC50 (HIV-2 N1 IN): 23 nM
susceptibility to RAL (HIV-2 IN Q148R): not susceptible
susceptibility to RAL, strand transfer (HIV-2 IN G140S): as susceptible to RAL as the wild-type reference N1 enzyme
IC50 (HIV-2 IN Y143C/N155H): 290 nM
effect on 3' processing in vitro (HIV-2 IN (N1 to N3)): no significant effect
